pIC50: −log10 of the molar value.
System: 299254-011-R-J1-PDC complex spheroid viability
Assay: Anticancer human tumor 299254-011-R-J1-PDC patient-derived melanoma cell line growth inhibition [POLQ]
Conditions: for pIC50: curve of first compound; for viability, T/C: stronger effect = lower value
Experimental: Multicellular complex tumor spheroid response to Polymerase (POL) inhibitors (novobiocin, ART-558, RP6685) in combination with a variety of drugs and investigational agents in selected tumor cell lines
The POL inhibitors (novobiocin, ART-558, and RP6685) were evaluated both individually and in combination with standard of care and investigational anticancer small molecules within a complex spheroid model of solid tumors. . Complex spheroids include a stromal component modeled by human endothelial cells (HUVEC) and fibroblasts modeled by human mesenchymal stem cells (MSCs). The concentration ranges selected for each drug and investigational agent were based upon clinically achievable concentrations if the clinical Cmax of the agent was known.
Compounds. The drugs and investigational agents: novobiocin (NSC847541), ART-558 (NSC835418), RP-6685 (NSC848927), peposertib (NSC802822), ceralasertib (NSC780249), elimusertib (NSC800525), camonsertib (NSC841442), AZD-1390 (NSC803789), olaparib (NSC753686), talazoparib (NSC767125), rucaparib (NSC756644), sotorasib (NSC818433), MRTX-1133 (NSC836407), SN-38 (NSC673596), topotecan (NSC609699), epotoside (NSC141540), doxorubicin (NSC123127), gemcitabine (NSC613327), 5-fluorouracil (NSC19893), paclitaxel (NSC125973), vemurafenib (NSC761431), MSA-2 (NSC828583), SN-011 (NSC837082), adavosertib (NSC754352), prexasertib (NSC758257), carboplatin (NSC241240) and oxaliplatin (NSC266046), were obtained from the National Cancer Institute (NCI) Developmental Therapeutics Program Chemical Repository (21). The FDA-approved anticancer drug set is available from the Developmental Therapeutics Program at https://dtp.cancer.gov/organization/dscb/obtaining/. […] The stock solutions were prepared in dimethyl sulfoxide (DMSO, Sigma-Aldrich, St. Louis, MO, cat. D2650), except for the platinum compounds which were prepared in saline (Quality Biological, Gaithersburg, MD, cat. 114-055-101), at 800-fold the tested concentration and stored at -70 degrees C prior to their use. All drugs and investigational agents were tested over a range starting from a high concentration at or near the clinical Cmax and decreasing in half-log increments. If the clinical Cmax for an agent had not been determined, the highest concentration tested was 10 microM, except for SN-38, which was tested at a high concentration of 1 microM.
Cell Culture. All cells were maintained in an incubator at 37 degrees C and 5% CO2 with 95% humidity. The PDC lines were cultured according to standard operating procedures established by the NCI PDMR (https://pdmr.cancer.gov). Table 3 of the manuscript, lists the cell lines along with the number of the three cell types plated to form the mct-spheroids and media for tumor cell growth. After thawing, all PDC lines, except 997537-175-T-J1-PDC and 415267-285-R-J2-PDC, were cultured in Matrigel-coated flasks prepared with a working solution of 1X Ham's F-12 nutrient mix, without supplementation (Thermo Fisher Scientific, cat. 11765054), 100 U/mL penicillin-streptomycin (Thermo Fisher Scientific, cat. 15140122), and 2.5% Matrigel (Corning Inc., Corning, NY, cat. 354248) for the first three passages. The two PDC lines 997537-175-T-J1-PDC and 415267-285-R-J2-PDC were cultured on uncoated flasks. The 857933-349-R-J2-PDC line was cultured in 6C/Colon 1B media containing advanced DMEM/F-12 (Thermo Fisher Scientific, cat. 12634028), 10 mM HEPES (Thermo Fisher Scientific, cat. 15630080), 1X GlutaMAX supplement (Thermo Fisher Scientific, cat. 35050061), 0.1 mg/mL primocin (InvivoGen, San Diego, CA, cat. ant-pm-2), 10% defined fetal bovine serum, heat inactivated (HyClone Laboratories Inc., Logan, UT, cat. SH30070.03HI), 50% L-WRN conditioned media (ATCC, cat. CRL-3276), 1.25 mM N-Acetyl-L-cysteine (Sigma-Aldrich, cat. A9165), 10 mM nicotinamide (Sigma-Aldrich, cat. N0636), 1X B-27 supplement (Thermo Fisher Scientific, cat. 17504044), 1X N-2 supplement (Thermo Fisher Scientific, cat. […]
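Note: spheroids exposed to drugs for one week before measurement.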
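Throughout, for viability, T/C: percent viability relative to DMSO vehicle control taken as 100%.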

CC(=O)O[C@H]1C(=O)[C@@]2(C)[C@H]([C@H](OC(=O)c3ccccc3)[C@]3(O)C[C@H](OC(=O)[C@H](O)[C@@H](NC(=O)c4ccccc4)c4ccccc4)C(C)=C1C3(C)C)[C@]1(OC(C)=O)CO[C@@H]1C[C@@H]2O + COC1C(OC(N)=O)C(O)C(Oc2ccc3c(O)c(NC(=O)c4ccc(O)c(CC=C(C)C)c4)c(=O)oc3c2C)OC1(C)C showed a pIC50 (second compound 0.0316 µM) of 6.97, a pIC50 (second compound 0.1 µM) of 7.15 and a pIC50 (second compound 0.316 µM) of 7.14. For the same compound, the pIC50 (second compound 1 µM) was 7.14, the pIC50 (second compound 3.16 µM) was 6.91 and the pIC50 (second compound 10 µM) was 7.04. The viability, T/C (second compound 0.0316 µM, first compound 0.00949 µM) was 77.3%, the viability, T/C (second compound 0.0316 µM, first compound 0.03 µM) was 75.9% and the viability, T/C (second compound 0.0316 µM, first compound 0.0949 µM) was 53.4%. For the same compound, the viability, T/C (second compound 0.0316 µM, first compound 0.3 µM) was 23.2%, the viability, T/C (second compound 0.0316 µM, first compound 0.949 µM) was 21.8% and the viability, T/C (second compound 0.0316 µM, first compound 3 µM) was 15.9%. The viability, T/C (second compound 0.1 µM, first compound 0.00949 µM) was 97%, the viability, T/C (second compound 0.1 µM, first compound 0.03 µM) was 63.3% and the viability, T/C (second compound 0.1 µM, first compound 0.0949 µM) was 46.7%. The viability, T/C (second compound 0.1 µM, first compound 0.3 µM) was 30.9%, the viability, T/C (second compound 0.1 µM, first compound 0.949 µM) was 21.4% and the viability, T/C (second compound 0.1 µM, first compound 3 µM) was 16%. For the same compound, the viability, T/C (second compound 0.316 µM, first compound 0.00949 µM) was 101%, the viability, T/C (second compound 0.316 µM, first compound 0.03 µM) was 73.1% and the viability, T/C (second compound 0.316 µM, first compound 0.0949 µM) was 41.4%. For the same compound, the viability, T/C (second compound 0.316 µM, first compound 0.3 µM) was 29.5%, the viability, T/C (second compound 0.316 µM, first compound 0.949 µM) was 21.2% and the viability, T/C (second compound 0.316 µM, first compound 3 µM) was 20%. It also gave a viability, T/C (second compound 1 µM, first compound 0.00949 µM) of 95.1%, a viability, T/C (second compound 1 µM, first compound 0.03 µM) of 70% and a viability, T/C (second compound 1 µM, first compound 0.0949 µM) of 43.8%. It also gave a viability, T/C (second compound 1 µM, first compound 0.3 µM) of 27.1%, a viability, T/C (second compound 1 µM, first compound 0.949 µM) of 22.2% and a viability, T/C (second compound 1 µM, first compound 3 µM) of 18.3%. The viability, T/C (second compound 3.16 µM, first compound 0.00949 µM) was 90.7%, the viability, T/C (second compound 3.16 µM, first compound 0.03 µM) was 68.3% and the viability, T/C (second compound 3.16 µM, first compound 0.0949 µM) was 61.3%. The viability, T/C (second compound 3.16 µM, first compound 0.3 µM) was 31.5%, the viability, T/C (second compound 3.16 µM, first compound 0.949 µM) was 22.6% and the viability, T/C (second compound 3.16 µM, first compound 3 µM) was 16.8%. The viability, T/C (second compound 10 µM, first compound 0.00949 µM) was 86.6%, the viability, T/C (second compound 10 µM, first compound 0.03 µM) was 84.9% and the viability, T/C (second compound 10 µM, first compound 0.0949 µM) was 47.1%. For the same compound, the viability, T/C (second compound 10 µM, first compound 0.3 µM) was 28%, the viability, T/C (second compound 10 µM, first compound 0.949 µM) was 21.6% and the viability, T/C (second compound 10 µM, first compound 3 µM) was 17.6%.
CCc1cc2c(N3CCc4c(cc(Cn5ccnc5)cc4-c4cn(C)nc4C(F)(F)F)C3=O)cc(C)nc2c(OC)n1 + COC1C(OC(N)=O)C(O)C(Oc2ccc3c(O)c(NC(=O)c4ccc(O)c(CC=C(C)C)c4)c(=O)oc3c2C)OC1(C)C was tested, and the pIC50 (second compound 0.0316 µM) was less than 5.00, the pIC50 (second compound 0.1 µM) was less than 5.00 and the pIC50 (second compound 0.316 µM) was less than 5.00. For the same compound, the pIC50 (second compound 1 µM) was less than 5.00, the pIC50 (second compound 3.16 µM) was less than 5.00 and the pIC50 (second compound 10 µM) was less than 5.00. For the same compound, the viability, T/C (second compound 0.0316 µM, first compound 0.0316 µM) was 96.8%, the viability, T/C (second compound 0.0316 µM, first compound 0.1 µM) was 96.1% and the viability, T/C (second compound 0.0316 µM, first compound 0.316 µM) was 109%. It also gave a viability, T/C (second compound 0.0316 µM, first compound 1 µM) of 81.1%, a viability, T/C (second compound 0.0316 µM, first compound 3.16 µM) of 91.5% and a viability, T/C (second compound 0.0316 µM, first compound 10 µM) of 69.5%. For the same compound, the viability, T/C (second compound 0.1 µM, first compound 0.0316 µM) was 99.8%, the viability, T/C (second compound 0.1 µM, first compound 0.1 µM) was 95.3% and the viability, T/C (second compound 0.1 µM, first compound 0.316 µM) was 104%. For the same compound, the viability, T/C (second compound 0.1 µM, first compound 1 µM) was 108%, the viability, T/C (second compound 0.1 µM, first compound 3.16 µM) was 107% and the viability, T/C (second compound 0.1 µM, first compound 10 µM) was 63.9%. It also gave a viability, T/C (second compound 0.316 µM, first compound 0.0316 µM) of 107%, a viability, T/C (second compound 0.316 µM, first compound 0.1 µM) of 121% and a viability, T/C (second compound 0.316 µM, first compound 0.316 µM) of 103%. For the same compound, the viability, T/C (second compound 0.316 µM, first compound 1 µM) was 106%, the viability, T/C (second compound 0.316 µM, first compound 3.16 µM) was 88.4% and the viability, T/C (second compound 0.316 µM, first compound 10 µM) was 66.8%. It also gave a viability, T/C (second compound 1 µM, first compound 0.0316 µM) of 116%, a viability, T/C (second compound 1 µM, first compound 0.1 µM) of 110% and a viability, T/C (second compound 1 µM, first compound 0.316 µM) of 114%. It also gave a viability, T/C (second compound 1 µM, first compound 1 µM) of 99.6%, a viability, T/C (second compound 1 µM, first compound 3.16 µM) of 94.5% and a viability, T/C (second compound 1 µM, first compound 10 µM) of 67.4%. It also gave a viability, T/C (second compound 3.16 µM, first compound 0.0316 µM) of 106%, a viability, T/C (second compound 3.16 µM, first compound 0.1 µM) of 107% and a viability, T/C (second compound 3.16 µM, first compound 0.316 µM) of 100%. The viability, T/C (second compound 3.16 µM, first compound 1 µM) was 106%, the viability, T/C (second compound 3.16 µM, first compound 3.16 µM) was 99.2% and the viability, T/C (second compound 3.16 µM, first compound 10 µM) was 70.6%. It also gave a viability, T/C (second compound 10 µM, first compound 0.0316 µM) of 96.3%, a viability, T/C (second compound 10 µM, first compound 0.1 µM) of 105% and a viability, T/C (second compound 10 µM, first compound 0.316 µM) of 110%. For the same compound, the viability, T/C (second compound 10 µM, first compound 1 µM) was 106%, the viability, T/C (second compound 10 µM, first compound 3.16 µM) was 93.5% and the viability, T/C (second compound 10 µM, first compound 10 µM) was 73.9%.

From PubChem BioAssay AID1963849 (Molecular Pharmacology Branch, DTP, NCI, 2024)
